Measured values taken from PubChem BioAssay AID1963843 (Molecular Pharmacology Branch, DTP, NCI, 2024).

Test system: 616215-338-R-J1-PDC complex spheroid viability
Assay: Anticancer human tumor 616215-338-R-J1-PDC patient-derived colon adenocarcinoma cell line growth inhibition [POLQ]
Conditions: for IC50: curve of first compound; for viability, T/C: stronger effect = lower value
Method in brief: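 Growth inhibition in 3D: complex spheroids (tumor PDC, HUVEC, MSC) treated with POLQ inhibitor combinations; where Cmax unknown, highest tested concentration 10 microM, except SN-38 at 1 microM.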

[1] = second compound 0.0316 µM, first compound 0.0316 µM
[2] = second compound 0.0316 µM, first compound 0.1 µM
[3] = second compound 0.0316 µM, first compound 0.316 µM
[4] = second compound 0.0316 µM, first compound 1 µM
[5] = second compound 0.0316 µM, first compound 3.16 µM
[6] = second compound 0.0316 µM, first compound 10 µM
[7] = second compound 0.1 µM, first compound 0.0316 µM
[8] = second compound 0.1 µM, first compound 0.1 µM
[9] = second compound 0.1 µM, first compound 0.316 µM
[10] = second compound 0.1 µM, first compound 1 µM
[11] = second compound 0.1 µM, first compound 3.16 µM
[12] = second compound 0.1 µM, first compound 10 µM
[13] = second compound 0.316 µM, first compound 0.0316 µM
[14] = second compound 0.316 µM, first compound 0.1 µM
[15] = second compound 0.316 µM, first compound 0.316 µM
[16] = second compound 0.316 µM, first compound 1 µM
[17] = second compound 0.316 µM, first compound 3.16 µM
[18] = second compound 0.316 µM, first compound 10 µM
[19] = second compound 1 µM, first compound 0.0316 µM
[20] = second compound 1 µM, first compound 0.1 µM
[21] = second compound 1 µM, first compound 0.316 µM
[22] = second compound 1 µM, first compound 1 µM
[23] = second compound 1 µM, first compound 3.16 µM
[24] = second compound 1 µM, first compound 10 µM
[25] = second compound 3.16 µM, first compound 0.0316 µM
[26] = second compound 3.16 µM, first compound 0.1 µM
[27] = second compound 3.16 µM, first compound 0.316 µM
[28] = second compound 3.16 µM, first compound 1 µM
[29] = second compound 3.16 µM, first compound 3.16 µM
[30] = second compound 3.16 µM, first compound 10 µM
[31] = second compound 10 µM, first compound 0.0316 µM
[32] = second compound 10 µM, first compound 0.1 µM
[33] = second compound 10 µM, first compound 0.316 µM
[34] = second compound 10 µM, first compound 1 µM
[35] = second compound 10 µM, first compound 3.16 µM
[36] = second compound 10 µM, first compound 10 µM
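Also: spheroids exposed to compounds for one week before readout.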
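For viability, T/C in this document: percent viability relative to DMSO vehicle wells taken as 100%.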

C#Cc1c(F)ccc2cc(O)cc(-c3ncc4c(N5CC6CCC(C5)N6)nc(OCC56CCCN5CC(F)C6)nc4c3F)c12 (stereo unspecified) + Cc1cccc(N(C)C(=O)C2C(O)CCN2c2nc(C)cc(C(F)(F)F)c2C#N)c1
IC50 (second compound 0.0316 µM): > 10 µM | IC50 (second compound 0.1 µM): > 10 µM | IC50 (second compound 0.316 µM): > 10 µM | IC50 (second compound 1 µM): > 10 µM | IC50 (second compound 3.16 µM): > 10 µM | IC50 (second compound 10 µM): > 10 µM | viability, T/C [1]: 88.6% | viability, T/C [2]: 109% | viability, T/C [3]: 94.2% | viability, T/C [4]: 101% | viability, T/C [5]: 113% | viability, T/C [6]: 71.8% | viability, T/C [7]: 101% | viability, T/C [8]: 110% | viability, T/C [9]: 103% | viability, T/C [10]: 109% | viability, T/C [11]: 103% | viability, T/C [12]: 73.9% | viability, T/C [13]: 99.8% | viability, T/C [14]: 101% | viability, T/C [15]: 98.1% | viability, T/C [16]: 99.6% | viability, T/C [17]: 91.8% | viability, T/C [18]: 69.8% | viability, T/C [19]: 103% | viability, T/C [20]: 107% | viability, T/C [21]: 94.9% | viability, T/C [22]: 108% | viability, T/C [23]: 104% | viability, T/C [24]: 64.3% | viability, T/C [25]: 104% | viability, T/C [26]: 99.2% | viability, T/C [27]: 101% | viability, T/C [28]: 101% | viability, T/C [29]: 103% | viability, T/C [30]: 66.7% | viability, T/C [31]: 101% | viability, T/C [32]: 101% | viability, T/C [33]: 108% | viability, T/C [34]: 96.3% | viability, T/C [35]: 73.9% | viability, T/C [36]: 67.8%

C=CC(=O)N1CCN(c2nc(=O)n(-c3c(C)ccnc3C(C)C)c3nc(-c4c(O)cccc4F)c(F)cc23)C(C)C1 (stereo unspecified) + Cc1cccc(N(C)C(=O)C2C(O)CCN2c2nc(C)cc(C(F)(F)F)c2C#N)c1
IC50 (second compound 0.0316 µM): > 10 µM | IC50 (second compound 0.1 µM): > 10 µM | IC50 (second compound 0.316 µM): > 10 µM | IC50 (second compound 1 µM): > 10 µM | IC50 (second compound 3.16 µM): > 10 µM | IC50 (second compound 10 µM): > 10 µM | viability, T/C [1]: 102% | viability, T/C [2]: 95.3% | viability, T/C [3]: 95.8% | viability, T/C [4]: 109% | viability, T/C [5]: 100% | viability, T/C [6]: 98.3% | viability, T/C [7]: 95.6% | viability, T/C [8]: 95.3% | viability, T/C [9]: 88.2% | viability, T/C [10]: 105% | viability, T/C [11]: 104% | viability, T/C [12]: 90.3% | viability, T/C [13]: 93.8% | viability, T/C [14]: 99.2% | viability, T/C [15]: 99.6% | viability, T/C [16]: 104% | viability, T/C [17]: 108% | viability, T/C [18]: 97% | viability, T/C [19]: 96.7% | viability, T/C [20]: 86% | viability, T/C [21]: 88.1% | viability, T/C [22]: 101% | viability, T/C [23]: 105% | viability, T/C [24]: 86.2% | viability, T/C [25]: 96.6% | viability, T/C [26]: 122% | viability, T/C [27]: 103% | viability, T/C [28]: 101% | viability, T/C [29]: 97.6% | viability, T/C [30]: 91.6% | viability, T/C [31]: 105% | viability, T/C [32]: 99.6% | viability, T/C [33]: 90.9% | viability, T/C [34]: 104% | viability, T/C [35]: 95.3% | viability, T/C [36]: 73%

CC(C)n1c(=O)n(C)c2cnc3cc(F)c(-c4ccc(OCCCN5CCCCC5)nc4)cc3c21 + Cc1cccc(N(C)C(=O)C2C(O)CCN2c2nc(C)cc(C(F)(F)F)c2C#N)c1
IC50 (second compound 0.0316 µM): > 10 µM | IC50 (second compound 0.1 µM): > 10 µM | IC50 (second compound 0.316 µM): > 10 µM | IC50 (second compound 1 µM): > 10 µM | IC50 (second compound 3.16 µM): > 10 µM | IC50 (second compound 10 µM): > 10 µM | viability, T/C [1]: 95.4% | viability, T/C [2]: 98.2% | viability, T/C [3]: 99.1% | viability, T/C [4]: 111% | viability, T/C [5]: 108% | viability, T/C [6]: 114% | viability, T/C [7]: 109% | viability, T/C [8]: 113% | viability, T/C [9]: 106% | viability, T/C [10]: 102% | viability, T/C [11]: 105% | viability, T/C [12]: 105% | viability, T/C [13]: 102% | viability, T/C [14]: 97.8% | viability, T/C [15]: 94.5% | viability, T/C [16]: 107% | viability, T/C [17]: 117% | viability, T/C [18]: 103% | viability, T/C [19]: 101% | viability, T/C [20]: 99.8% | viability, T/C [21]: 102% | viability, T/C [22]: 117% | viability, T/C [23]: 114% | viability, T/C [24]: 113% | viability, T/C [25]: 105% | viability, T/C [26]: 101% | viability, T/C [27]: 108% | viability, T/C [28]: 114% | viability, T/C [29]: 108% | viability, T/C [30]: 102% | viability, T/C [31]: 108% | viability, T/C [32]: 114% | viability, T/C [33]: 105% | viability, T/C [34]: 109% | viability, T/C [35]: 108% | viability, T/C [36]: 95.4%
